# Experimental data: US10117890B2, “Methods and compositions for treating pain” (Academia Sinica, priority 2012, dated 2018)
# Entries after “also recorded” stand apart in the source; their conditions may differ.
# Key:
# [1] = tested on: muscle nociceptors (ASIC3-positive muscle afferent DRG neurons expressing ISP-O); assay: Whole-cell patch-clamp recording of outward currents in muscle afferent DRG neurons; format: cell-based, mice; conditions: for induction of outward current in ASIC3/SP-expressing muscle DRG neurons: SP-sensitive muscle nociceptors; for inhibition of T1-11-induced outward current (IT1-11) by adenosine receptor antagonists: muscle nociceptors
# Protocol: The digested DRG neurons were washed with fetal calf serum (FCS)-free DMEM or DMEM containing 10% FCS during each treatment. Fully digested DRGs were triturated and plated on poly-L-lysine-coated cover slides. Cell cultures were maintained in a 5% CO2 incubator at 37° C.
# Whole-cell patch-clamp recordings of muscle-afferent neurons involved use of Axopatch MultiClamp 700B (Axon Instruments). Neurons with membrane potential >−40 mV were discarded. The bridge was balanced in current-clamp recording, and the series resistance was compensated 70% in voltage-clamp recording with […] 700B compensation circuitry. All experiments were performed at room temperature (21-25° C.) and completed within 30 hr post-seeding. Unless specifically mentioned, the patch pipettes were prepared in 1-5 MΩ and filled with internal solution containing (in mM) 100 KCl, 2 Nae-ATP, 0.3 Na3-GTP, 10 EGTA, 5 MgCl2, and 40 HEPES, adjusted to pH 7.4 with KOH. Recording cells were superfused in artificial cerebrospinal fluid (ACSF) by control with gravitational force. The ACSF contained (in mM) 130 NaCl, 5 KCl, 1 MgCl2, 2 CaCl2, 10 glucose, and 20 HEPES, adjusted to pH 7.4 with NaOH. Osmolarity was adjusted to 300 mOsm. The acidic ACSF was titrated to pH 6.8 by […]. […] If not specifically mentioned, drugs listed above were from Sigma Chemical (St. Louis, Mo.).
# The procedure was repeated at least 2 times to ensure consistent data. […] ACSF-containing compounds were superfused for 1 min to ensure complete replacement of previous perfusate between treatments. […] A recording pipette containing 1 mM GDP-β-S was used in GTP dialysis. The GABA-B current was induced by 100 μM Baclofen at the beginning of dialysis (0, 1 and 2 min after whole-cell patch clamp). Then, Baclofen was used to re-stimulate the dialyzed neurons after 10-min dialysis (10, 11 and 12 min after whole-cell patch clamp).
# [2] = tested on: acid(ASIC3)-induced chronic muscle pain; assay: Acid-induced chronic muscle pain model (repeated intramuscular acid injection, von Frey test); format: in vivo, mice; conditions: for acid-induced hyperalgesia, co-injection with acidic saline: 1 nmole, i.m.
# From the text: Adult (8- to 12-wk-old) C57/BL6 mice were used. All procedures followed the Guide for the Use of Laboratory Animals (National Academy Press, Washington D.C., USA) and were approved by the Institutional Animal Care and Use Committee of Academia Sinica. We aimed to minimize the number of animals used and their suffering without compromising the quality of the experiments. The generation and genotyping of Tac1^−/− mice and Asic3^−/− mice were as described. Both null mutant mice were backcrossed to C57/BL6 for 10 generations to establish a congenic strain. Congenic Tac1^−/− Asic3^−/− mice were offspring of Tacl^+/− and Asic3^+/− intercrosses.
# Mice received an intramuscular acid injection in the gastrocnemius muscle (GM) containing 20 μl acid saline (pH 4.0) with or without (Sar^9, Met(O2)^11)-substance P (SP; 4, 10, or 40 μM) or 100 μM RP67580 or 200 μM XE991. Mechanical hyperalgesia was assessed by applying a 0.2-mN von Frey filament to the plantar surface of both hind paws of mice. Mice were acclimatized in an acrylic cubicle for 60 min before testing. A positive response was defined as the foot lifting when the von Frey filament was applied. For each paw, the filament was applied 5 times at 30-sec intervals. Responses of the paw to mechanical stimuli were measured before injection and at 4 and 24 hr and 5 days after the first acid injection (day 0) and at 4, 24, and 72 hr and 1 week after the second acid injection (day 5). For single-injection experiments, responses to mechanical stimuli were measured before the injection, at 4 hr and at 1, 3, 5, 7, 9, 11, 13, 15 and 22 days after the injection or at 4, 24, 48 hr and 7 and 14 days after the injection. NK1-selective agonist ((Sar^9, Met(O2)^11)—SP) was from Sigma Chemical (St. Louis, Mo.). NK1-selective antagonist (RP67580) and XE991 were from Tocris (Avonmouth, UK). The experimenters were blinded to the experimental manipulations. The person who conducted von Frey test had no information of the mouse genotypes or drug injections.
# [3] = tested on: ASIC3; assay: Whole-cell patch clamp of acid-induced current in CHO cells transfected with ASIC3; format: cell-based
# [4] = tested on: ICS-induced pain; assay: Intermittent cold stress (ICS) mouse model of fibromyalgia, von Frey test; format: in vivo, mice; conditions: SM-substance P 0.6 mg/kg alone
# Protocol: Mechanical hyperalgesia was assessed by applying a 0.2 mN von Frey filament to the plantar surface of both hind paws. For each paw, the filament was applied for 5 times at 30-s intervals.
# To induce fibromyalgia-like symptoms, mice were treated with intermittent cold stress, which produces long-lasting (more than 2 weeks) thermal hyperalgesia and mechanical allodynia, predominantly in females. Method: Mice were placed on stainless mesh plate in a cold room at 4° C. overnight (from 4:30 pm to 10:00 am), followed by intermittent cold stress with environment temperatures alternating between 24 and 4° C. every 30 min, from 10:00 am to 4:30 pm. These procedures were repeated twice. On day 3, the mice were adapted to 24 C for 1 h before behavioral testing.
# The second fibromyalgia model is developed by Ueda's group, in which mice were treated with intermittent cold stress for 2 days (Nishiyori & Ueda, 2008). Mice treated with intermittent cold stress will develop long-lasting (>2 weeks) mechanical and thermal hyperalgesia. Analgesic effect of T1-11 was tested in these mice 5 day after intermittent cold stress (ICS). […] Moreover, we found T1-11 and substance P have synergistic effect in treating the ICS-induced pain.
molecule,measurement,setting,value
"CCNC(=O)[C@H]1O[C@@H](n2cnc3c(N)nc(NCCc4ccc(CCC(=O)O)cc4)nc32)C(O)C1O (stereo in doubt) [CGS21680, reference compound]",outward current in A2A−/− muscle afferent DRG neurons,[1]; CGS21680 high dose 10 μM,induces an outward current
same,induction of outward current in ASIC3/SP-expressing muscle DRG neurons,[1],can also induce outward currents
same,"acid-induced hyperalgesia, co-injection with acidic saline",[2],partially inhibited acid-induced hyperalgesia; also recorded: showed partial analgesic effect
OC[C@H]1O[C@@H](n2cnc3c(NCCc4c[nH]c5ccccc45)ncnc32)C(O)C1O (stereo in doubt) [JMF1907],induction of outward current in ASIC3/SP-expressing muscle DRG neurons,[1],can also induce outward currents
CNC(=O)[C@H]1O[C@@H](n2cnc3c(NCc4cccc(I)c4)ncnc32)[C@H](O)[C@@H]1O [IB-MECA],"acid-induced hyperalgesia, co-injection with acidic saline",[2],has no effect on acid-induced hyperalgesia; also recorded: did not have analgesic effect
OC[C@H]1O[C@@H](n2cnc3c(NCc4cccc(O)c4)ncnc32)C(O)C1O (some centres unmarked) [JMF1998],induction of outward current in ASIC3/SP-expressing muscle DRG neurons,[1],can also induce outward currents
OC[C@H]1O[C@@H](n2cnc3c(NCc4ccc(Br)cc4)ncnc32)C(O)C1O (some centres unmarked) [JMF2665],induction of outward current in ASIC3/SP-expressing muscle DRG neurons,[1],can also induce outward currents
"CCCn1cc2c(nc(NC(=O)Nc3ccc(OC)cc3)n3nc(-c4ccco4)nc23)n1 [MRE3008F20, reference compound]",inhibition of T1-11-induced outward current (IT1-11) by adenosine receptor antagonists,[1],reversely inhibited
"O=C(Cc1ccccc1)Nc1nc2ccc(Cl)cc2c2nc(-c3ccco3)nn12 [MRS1220, reference compound]",inhibition of T1-11-induced outward current (IT1-11) by adenosine receptor antagonists,[1],reversely inhibited
same,effect of antagonist on the analgesic effect of T1-11,[2]; MRS1220 200 pmole i.m.,abolished the analgesic effect of T1-11
"COc1ccccc1CC(=N)N1C[C@@H]2C(=O)CCC(c3ccccc3)(c3ccccc3)[C@@H]2C1 [RP67580, reference compound]",inhibition of IT1-11 by NK1 receptor antagonist,[1]; RP67580 (10 n=17),inhibited IT1-11
"O=C(O)c1ccccc1O [salicylic acid, reference compound]",acid-induced current in CHO cells transfected with ASIC3,[3],blocked
"(Sar^9, Met(O2)^11)-substance P [SM-substance P, reference compound]","analgesic effect on ICS-treated mice, SM-substance P alone",[4],did not show analgesic effect
APETx2,"acid-induced hyperalgesia, co-injection of acid and APETx2",[2]; APETx2 2 pmole at the first acid injection,abolished the transient hyperalgesia and prevented the development of chronic hyperalgesia
